Results as given in US10730892B2, “Homoallylamines as formaldehyde-responsive triggers” (The Regents of the University of California, priority 2015, dated 2020).
Several values for one entry are separate records, joined by “and”; a condition that tells them apart may be missing. Equal values may be shown once. Read-outs that look alike come from different tables or passages of the source.

Legend:
HEK293TN cells = details: 5 mM FA, 37° C., 3 hrs
Procedure: (§1) Nuclear magnetic resonance (NMR) spectra were recorded on Varian 400 or 500 MHz spectrometers at 25° C. Chemical shifts are reported in ppm (δ) and are referenced to residual protic peaks. The following abbreviations are used to describe coupling constants: singlet (s), doublet (d), triplet (t), quartet (q), doublet doublet (dd), doublet triplet (dt), doublet quartet (dq), doublet doublet triplet (ddt), multiplet (m), and broad singlet (bs). IR spectra were recorded with a PerkinElmer Spectrum Two infrared (IR) spectrometer. High-resolution mass spectra were acquired with a Waters Q-TOF Ultima ESI mass spectrometer and a Waters Synapt G2-Si ESI/LC-MS mass spectrometer. UV-visible spectra were recorded on a Cary 60 spectrometer. Fluorescence spectra were acquired on a QuantaMaster-400 scanning spectrofluorometer with micro fluorescence quartz cuvettes (Science Outlet). Flow cytometry was performed on a BD Biosciences LSR II (San Jose, Calif., USA), and the data were analyzed as described using FACSDiva software.
(§2) HEK293TN cells were obtained from Prof. Paul Hergenrother (UIUC, Chemistry) and cultured in phenol-red free Dulbecco's modified eagle medium (DMEM, Corning) supplemented with 10% fetal bovine serum (FBS, Sigma Aldrich), and 1% penicillin/streptomycin (Corning). Neuroscreen-1 cells were obtained from Prof. Kai Zhang (UIUC, Biochemistry) and cultured in Ham's F-12K medium (Sigma Aldrich) supplemented with 15% horse serum (Hyclone), 2.5% fetal bovine serum (FBS, Sigma Aldrich), and 1% penicillin/streptomycin (Corning). Cells were incubated at 37° C. and 5% CO2. One day before imaging, cells were passed and plated on 8-well chambered coverglasses (Lab-Tek) at a density of 40,000 cells per mL (or 20,000 cells per well). Cells would reach 70-80% confluency before imaging. […] Samples of HEK293TN and NS1 cells for flow cytometry were prepared by passaging and seeding each well of a 6-well cluster culture dish (Cyto-One) with 300,000 cells one day before experiments. […] Stained cells were aspirated and serum-free DMEM added. Subsequently, a 10× concentrated FA solution was added to give a final concentration of 1.0 mM. 2.5 mM and 5 mM. After incubation cells with FA, the media was removed and replaced with serum-free DMEM. Finally, cells were trypsinized, pelleted via centrifugation, resuspended in phosphate-buffered saline (PBS) for flow cytometric analysis.

NS1 cells = details: 37° C., 3 hrs
Procedure: as §1, §2

[1] = system: Neuroscreen-1 (NS1) cells
Procedure: FIG. 12 depicts live-cell imaging of NS1 cells. […] Cells were irradiated with the 633 nm HeNe laser set at 3% power with a pinhole size of 1 airy unit. The emission was collected between 645 and 800 nm. Scale bar represents 20 μm. Pseudo-coloring represents intensity distribution from highest intensity indicated by white to the lowest intensity designated by black.
FIG. 13 depicts quantification of observed fluorescence intensity by confocal imaging in NS1 cells after incubation with 1 mM, 2.5 mM or 5 mM FA for 1 (light grey bars), 2 (dark grey bars) and 3 h (black bars). A Ham's F-12K vehicle was added to control cells which was normalized to 1 (white bars). […] For each condition, a minimum of 5 images were averaged (n>5). Errors represent standard deviation.
FIG. 20 depicts quantification of data obtained from confocal microscopy images acquired by irradiation of NS1 cells treated with a vehicle control, 0.25 mM and 0.5 mM FA at 37° C. for 3 hrs with the 633 nm HeNe laser. […] For each condition, a minimum of 5 images were averaged (n>5). Errors represent standard deviation.
as §2
Prior to imaging, cells were allowed to recover in FA-free buffer for 30 min. […] Because FA is a powerful fixative, cell viability assays were performed to determine the cytotoxicity of FA under experimental conditions. A dye exclusion protocol was employed, utilizing trypan blue to selectively stain and distinguish dead cells from those that were viable. […] To further verify that the cell populations under investigation were indeed alive, DAPI, a cell permeable nuclear and chromosome counterstain, was employed to identify intact nuclei (FIG. 16).
For example, semicarbazide-sensitive amine oxidase (SSAO) is primarily localized to the plasma membrane (Andres et al., J. Histochem. Cytochem. 2001, 49:209). Thus, both HEK293TN and NS1 cells were costained with ER-Tracker Green, LysoTracker Green DND-26, and MitoTracker Green FM, fluorescent indicators that are known to selectively stain the endoplasmic reticulum, lysosome, and mitochondria, respectively in almost all cell types (FIG. 17A and FIG. 17B).

[2] = for fold increase in fluorescence intensity: 3 h
Procedure: All experiments were performed at 37° C. for 3 h. Time points on graphs a-b are recorded every 15 min. The time points for graphs c-d represent every 30 min.
All buffers used for pH titrations were prepared in deionized water and brought to the appropriate pH with aqueous HCl or NaOH. The buffers used were 50 mM glycine (pH range 2.00-3.50), 50 mM NaOAc (pH range 4.00-5.60), 50 mM MES (pH range 5.60-6.80), 50 mM HEPES (pH range 6.80-8.20), 50 mM Tris (pH range 8.20-9.50) and 50 mM glycine (pH range 9.50-10.40). A 10 mM stock solution of formaldehyde for in vitro titration experiments was prepared by heating a suspension of paraformaldehyde (>88% w/w, 17.6 mg, 0.50 mmol, TCI, lot # NXR2B) in phosphate buffered saline (PBS) buffered to pH 7.4 (50 mL) at 88° C. for 1 hr. The solution was cooled to room temperature and filtered through a 0.22 μm syringe filter (Millex).
as §1
In addition to its ability to crosslink biomolecules, FA is cytotoxic through the induction of oxidative stress (Zararsiz et al., Cell Biochem. Fund. 2007, 25:413).

C=CCC(NCc1ccc([N+](=O)[O-])cc1)c1cn(C)c2cc(C)c(C3=C4C=CC(=O)C=C4[Si](C)(C)c4c3cc3c5c4CCCN5CCC3)cc12 (centres unmarked) [FP1]
fold turn-on, median APC-A fluorescence intensity (flow cytometry) (HEK293TN cells): ~2.5 fold | fluorescence turn-on (flow cytometry) (NS1 cells; NS1, 0.25 mM FA): 42% | fluorescence turn-on (flow cytometry) (NS1 cells; NS1, 0.5 mM FA): 50% | fold increase by flow cytometry (NS1 cells; NS1, 5 mM FA): 4.2 fold | fold fluorescence increase (time-lapse imaging) ([1]; NS1, 1 μM FP1, on-stage addition of 1 mM FA at 25° C., 2 hrs): 1.3 fold | fold increase in fluorescence intensity (confocal) ([1]; NS1, 2 μM FP1, 1 mM FA, 1 hr): 0 fold | fold increase in fluorescence intensity (confocal) ([1]; NS1, 2 μM FP1, 1 mM FA, 2 hrs): 1.1 fold | fold increase in fluorescence intensity (confocal) ([1]; NS1, 2 μM FP1, 1 mM FA, 3 hrs): 1.6 fold | fold increase in fluorescence intensity (confocal) ([1]; NS1, 2 μM FP1, 2.5 mM FA, 1 hr): 1.3 fold | fold increase in fluorescence intensity (confocal) ([1]; NS1, 2 μM FP1, 2.5 mM FA, 2 hrs): 1.5 fold | fold increase in fluorescence intensity (confocal) ([1]; NS1, 2 μM FP1, 2.5 mM FA, 3 hrs): 2.0 fold | fold increase in fluorescence intensity (confocal) ([1]; NS1, 2 μM FP1, 5 mM FA, 1 hr): 1.8 fold | fold increase in fluorescence intensity (confocal) ([1]; NS1, 2 μM FP1, 5 mM FA, 2 hrs): 2.0 fold | fluorescence increase (confocal) ([1]; NS1, 0.25 mM FA, 37° C., 3 hrs): 16% | signal enhancement (confocal) ([1]; NS1, 0.5 mM FA, 37° C., 3 hrs): 38% | fold increase in fluorescence intensity ([2]; 1 μM FP1, 0.1 mM FA, PBS pH 7.4, 37° C.): 3.9 fold | fold fluorescence increase ([2]; 1 μM FP1, 0.25 mM FA, PBS pH 7.4, 37° C., 3 hrs): ca. 7.0 fold | fold increase in fluorescence intensity ([2]; 1 μM FP1, 0.5 mM FA, PBS pH 7.4, 37° C.): 8.5 fold | fold increase in fluorescence intensity ([2]; 1 μM FP1, 1 mM FA, PBS pH 7.4, 37° C.): 12.8 fold and 11.6 fold | lower limit of detection of FP1 ([2]; FA, after 3 hrs incubation at 37° C.): 0.01 mM
